Here are results for five compounds from patent US8481515B2, “Derivatives of cholest-4-en-3-one oxime, pharmaceutical compositions containing them and preparation method” (Trophos, priority 2005, dated 2013).

One data set has as its system rat motoneurons. The data set is described as follows: in vitro trophic deprivation model of rat motoneurons (survival, calcein fluorescence). The data set is classed as cell-based. The note with it: 3 days of culture, no trophic factors. From the text:
It may be helpful to refer to Patent Application WO 0142784 of the applicant on the culture of spinal cord motoneurons.
The spinal cord of E14 rat embryos is dissected and the ventral portion is dissociated by trituration after trypsinization. The motoneurons are separated from the other spinal cells by a known method (Camu et al, 1993, Purification of spinal motoneurons from chicken and rat embryos by immunopanning. In <<Immunoselection Strategies for Neural cell culture>>), Neuroprotocols: A companion to Methods in Neurosciences 2, 191-199; Henderson et al., 1993, Neutrophins promote motor neuron survival and are present in embryonic limb bud. Nature 363 (6426):266-70). The cells are centrifuged on a density gradient. The motoneurons are enriched with the fraction of large (the less dense) cells. The cells of this fraction are incubated with an anti-p75 antibody, a surface antigen present on motoneurons. Secondary antibodies coupled with magnetic beads are added and the cell mixture is passed through a column in a magnet (Arce et al, 1999 Cardiotrophin-1 requires LIFRbeta to promote survival of mouse motoneurons purified by a novel technique. J. Neurosci Res 55(1): 119-26). Only motoneurons are retained: their purity is of the order of 90%.
The motoneurons are sown at low density in culture wells on a polyornithine-laminine substrate in a neurobasal medium (GIBCO) supplemented according to Raoul et al, 1999, Programmed cell death of embryonic motoneurons triggered through the Fas death receptor. J. Cell. Biol. 147(5):1049-62. Negative (absence of trophic factors) controls and positive controls (in the presence of 1 ng/ml BDNF (Brain-Derived Neurotrophic Factor), 1 ng/ml GDNF (Glial-Derived Neurotrophic Factor) and 10 ng/ml CNTF (Ciliary Neurotrophic Factor) as marketed by the US company PEPROTECH, Inc. and Sigma-Aldrich) are included in each series.
The compounds to be tested are added 60 minutes after sowing and the cultures are maintained at 37° C. under 5% CO2 for 3 days.
The motoneurons tend to die spontaneously in the absence of neurotrophic factors (Pettmann and Henderson, 1998, Neuronal cell death. Neuron 20(4):633-47). After 3 days, survival is evaluated by a fluorescence measurement after incubation of the cells in the presence of calcein which becomes fluorescent in living cells.
After 3 days of culture at 37° C. under 5% CO2 and in saturating humidity, up to 50% of the initially sown motoneurons survive in the medium supplemented with neurotrophic factors, whereas less than 15% of the motoneurons survive in a culture medium not added with neurotrophic factors.
The neuroprotective activity of the compounds to be tested was evaluated by their capacity of preventing the death of motoneurons when they are added to the Neurobasal medium (GIBCO) as compared with survival of the motoneurons in a medium added with neurotrophic factors.
The compounds of formula I according to the invention have shown neuroprotective activity at a concentration capable of providing a better survival rate of the motoneurons in the Neurobasal medium. This survival rate is expressed by the number of living cells after treatment with the compound to be tested as compared with survival induced by neurotrophic factors. This ratio therefore represents the survival percentage due to the tested compound as compared with the survival induced by neurotrophic factors. If the ratio is greater than 0, the effect of the compound is positive for the survival of motoneurons.

A further data set concerns striatal neurons. The data set is described as follows: protection of striatal neurons against death induced by overexpression of a mutated form of huntingtin. The data set is classed as cell-based. The note with it: 7 days, living cells expressing GFP. The protocol:
Primary cultures of striatal neurons are prepared and they are described in the literature (Primary striatal neuronal culture, Mao L. et al., Methods Mol. Med., 2003, 79:379-86). […] A second expression vector containing the DNA coding for the green fluorescent protein (GFP) is also electroporated and is used as a reporter gene. The DNA of the plasmid coding for the huntingtin was prepared by purifying with cesium chloride. The plasmid containing the GFP sequence was prepared on Qiagen columns. The integrity of the DNA sequences is checked by sequencing, transfection and Western blotting. The cells which survive electroporation are sown at a density of 4,000 cellules per well of 96-well plates. The culture is accomplished in neurobasal medium (GIBCO) supplemented with pyruvate and B-27 (Beckton Dickinson). The cells are maintained in culture for 7 days without changing the medium.
[…] Positive controls are made by adding BDNF at a final level of 5 ng/ml. The negative controls only receive 0.5% DMSO.
Cell death is evaluated after 7 days by counting the number of living cells expressing GFP.
The activity of the compounds to be tested was evaluated by their capacity of preventing death of striatal neurons cultivated in the neurobasal medium as compared with the survival of striatal neurons in a medium supplemented with BDNF (Brain-Derived Neurotrophic Factor).

The subject of a further data set is cortical neurons. The data set is described as follows: protection of cortical neurons against camptothecin-induced death (calcein-AM cell count). In kind it is cell-based, Sprague-Dawley rat. Conditions: 10 μM camptothecin, 16 hours, mean ± standard deviation, n = 8 wells. The protocol:
Cortical neurons were prepared from Sprague-Dawley rat embryos in the E18 pregnancy stage and cultivated in a 96-well plate at a density of 333 cells/mm^2 in Neurobasal medium (Invitrogen) supplemented with 2% B27 (Invitrogen) and 2% sodium pyruvate. With these culture conditions, it is possible to obtain very good cortical neuron purity in the cultures. After 6 days in culture, the death of cortical neurons was induced by adding 10 μM camptothecin dissolved in dimethyl sulfoxide (DMSO). At the same moment, the neurons were treated with different concentrations of the compound to be tested. The final DMSO concentration after treatment is 1%. After 16 hours of incubation with camptothecin, the survival of the neurons was evaluated by counting the surviving cells. To do this, the cells were incubated for 20 minutes in the presence of a vital dye, calcein-AM (Invitrogen) at 2 μg/ml. After labelling, each culture well was analyzed by means of an imaging station (Flash Cytometer, TROPHOS, FRANCE) provided with an image analysis software package TINA 4.5 (TROPHOS, France) allowing acquisition of digital images of the whole of the well (exposure time 40 ms). The cells, defined by pixel size criteria (min=10; max=40), were then counted by means of the Tina 4.5 software package (TROPHOS)

Consider `CCC(C=C[C@@H](C)[C@H]1CC[C@H]2[C@@H]3CC(=NO)C4=CC(=NO)CC[C@]4(C)[C@H]3CC[C@]12C)C(C)C` (stereo partly shown) [Example 13, 24-ethyl-cholest-4,22-dien-3,6-dioxime], for which, in the data set on rat motoneurons (concentration 1 μM), the “Ratio (survival of motoneurons with compound as compared with survival induced by neurotrophic factors)” value is 0.34.

As to `CC(C)=CCC[C@@H](C)[C@H]1CC[C@H]2[C@@H]3CC(=NO)C4=CC(=NO)CC[C@]4(C)[C@H]3CC[C@]12C` [Example 10, cholest-4,24-dien-3,6-dioxime], the “Ratio (survival of motoneurons with compound as compared with survival induced by neurotrophic factors)” value with rat motoneurons (concentration 1 μM) was 0.25.

`CCC(C=C[C@@H](C)[C@H]1CC[C@H]2[C@@H]3CC(=O)C4=CC(=NO)CC[C@]4(C)[C@H]3CC[C@]12C)C(C)C` (stereo partly shown) [Example 7, 24-ethyl-3-oxyimino-cholest-4,22-dien-6-one]: the “Ratio (survival of motoneurons with compound as compared with survival induced by neurotrophic factors)” value in the data set with rat motoneurons (concentration 1 μM) is given as 0.46.

For `CC(C)CCC[C@@H](C)[C@H]1CC[C@H]2[C@@H]3CC(=O)C4=CC(=NO)CC[C@]4(C)[C@H]3CC[C@]12C` [Example 3, 3-oxyimino-cholest-4-en-6-one], the “Ratio (survival of motoneurons with compound as compared with survival induced by neurotrophic factors)” value in the data set on rat motoneurons (concentration 3 μM) was 0.60. Also, the “Ratio (survival of striatal neurons as compared with survival in medium supplemented with BDNF)” value with striatal neurons (concentration 1 μM) was 0.3. The figures for the “Cell viability (%)” value with cortical neurons (0.1 μM compound), in the data set on cortical neurons (0.3 μM compound) and in the data set with cortical neurons (1 μM compound) were 63.3 ± 20.3%, 99.1 ± 15.7% and 112.2 ± 22.3%, respectively.

Consider `CC(C)CCC[C@@H](C)[C@H]1CC[C@H]2[C@@H]3CC(=NO)C4=CC(=NO)CC[C@]4(C)[C@H]3CC[C@]12C` [Example 9, cholest-4-en-3,6-dioxime], for which the “Ratio (survival of motoneurons with compound as compared with survival induced by neurotrophic factors)” value in the data set on rat motoneurons (concentration 0.6 μM) was 0.25. In the data set with striatal neurons (concentration 0.3 μM), the “Ratio (survival of striatal neurons as compared with survival in medium supplemented with BDNF)” value amounted to 0.5.
